Laboratory results reported in US5633277A, “Sulfonamide aminomethylene derivatives as immunosuppressants” (Miles Inc., priority 1995, dated 1997).
Each block holds one molecule with its values, some of them ahead of it.

Columns and labels:
[1] = target: FKBP (Homo sapiens, UniProt P62942); test: PPIase Inhibition Assay; format: biochemical
Procedure: 1) Inhibition of PPlase Activity
This assay follows in principle the procedure described in Kofron et al., 1991, Biochemistry 30:6127. The three main reagents used are PPIase, a substrate for PPIase, and a selected inhibitor compound of the present invention. The basic principle behind this assay is the conversion of the cis isomer of the substrate to the trans form, which conversion is catalyzed by PPIase. Essentially, inhibition of this PPIase activity is measured for the selected compounds. A peptide chymotrypsin substrate containing a proline in the P2 position is only cleaved by chymotrypsin when the Phe-Pro bond is in the trans isomeric configuration. In the presence of excess chymotrypsin, all of the trans peptide isomers are cleaved within approximately five seconds, leaving only cis forms.
The cis peptide will spontaneously convert to the trans isomer at a slow rate. The cis to trans conversion is catalyzed by isomerases at a much faster rate than this spontaneous conversion. Proteins with PPIase activity are examples of such isomerases. After isomerization, the peptide is cleaved by chymotrypsin releasing p-nitroaniline which can be monitored at 390 nm. The rate of release is then calculated using a first order rate plus offset equation utilizing the ENZFITTER program (Leatherbarrow, BIOSOFT, Cambridge, United Kingdom).
In a plastic cuvette are added 950 ul of ice cold assay buffer (25 mM HEPES, pH 7.8, 100 mM NaCl), 10 uL of FKBP (2.5 uM in 10 mM Tris-Cl pH 7.5,100 mM NACl, 1 mM dithiothreitol), 25 ul of chymotrypsin (50 mg/ml in 1 mM HCl) and 10 ul of the test compound at various concentrations in dimethyl sulphoxide. The reaction is initiated by addition of 5 ul of substrate (Succinyl-Ala-Phe-Pro-Phe-para-nitroanilide, 5 mg/ml in 235 mM LiCl in trifluoroethanol).
The absorbance at 390 nm versus time is monitored for 90 sec using a Beckman DU70 spectrophotometer. The absorbance versus time data files are transferred to an IBM XT computer and the rate constants determined using the commercial Enzfitter program. For each set of data, the uncatalyzed rate of conversion is measured and the uninhibited enzymatic rate determined. The data are expressed as % Inhibition and are calculated as follows: [formula] where kobs is the rate in the presence of a selected test compound, kuncat is the rate in the absence of enzyme, and kuninh is the rate in the presence of enzyme and absence of inhibitor. Data are plotted as percent inhibition versus concentration of inhibitor. The values of the concentration of inhibitor required for 50% inhibition of enzyme activity (IC50) were determined by nonlinear least squares regression analysis.

[2] = tested on: human T-cells; test: Suppression of Human T-Cell Proliferation Assay (mitogen-induced, [3H]-thymidine incorporation); format: cell-based; conditions: for IC50: Homo sapiens, T-cell, 72 hours incubation, mitogen stimulated, read-out: IC50 (inhibition of [3H]-thymidine incorporation of T-cells by 50%)
Source text: 2) Human T Lymphocyte Inhibition
Inhibition of mitogen-induced T-cell proliferation can be used to profile immunosuppressive activity of test compounds. In the description of the assay which follows, mitogen-induced T-cell proliferation was used to test the inhibitory potencies of select compounds of the present invention.
In an assay similar to that described by Bradley in Mishell et al. (Eds.), 1980, Selected Methods in Cellular Immunology, pp 156-161, W. H. Freeman & Co., San Fransisco, Calif., T-cells were stimulated by incubation with phytohemagglutinin (PPIA) which binds to cell surface molecules, including the T-cell receptor. This stimulation results in proliferation which can be measured by incorporation of [^3 H]-thymidine into cellular DNA.
The immunosuppressive properties of the compounds of the present invention can be determined by adding various concentrations of the compounds to these cultures and measuring the effect on T-cell proliferation.
Suppression of Human T-Cell Proliferation Assay
Fresh LeukoPaks were obtained from the New York Blood Center, New York, N.Y. The cells, including erythrocytes and leukocytes, were diluted with Hank's Balanced Salt Solution (HBSS) (GIBCO, Grand Island, N.Y.) and layered over Lymphoprep (Nycomed Pharma AS, Oslo, Norway) in sterile 50 ml conical centrifuge tubes. Lymphocytes were isolated at the Hank's/Nycomed interface after centrifugation at 2000×g, 4° C. for 15 min. The lymphocytes were washed with Minimal Essential Medium (GIBCO) containing 2% fetal bovine serum (FBS) (Sigma Chemical Co., St. Louis, Mo.), 1% HEPES buffer (GIBCO) and 1% Penicillin-Stretomycin solution (GIBCO).
T-cells were further purified essentially by sheep erythrocyte (SRBC) rosetting as described by Morimoto et al., 1983, J. Immunol. 130:157. The isolated lymphocytes were adjusted to 2×10^7 cells/ml and 5 ml aliquots of the cell suspension were incubated for 10 minutes at room temperature with 5 ml of a 5% SRBC (Cappel, Organon Technika Corp., West Chester, Pa.) suspension. The cells were gently pelleted by centrifugation at 300 rpm for 10 minutes, followed by a 1 hour incubation at room temperature to allow rosette formation. The cells were gently resuspended,layered over Lymphoprep and centrifuged for 30 minutes at 500×g. The pellet, containing rosetted T-cells and SRBC was treated with ice cold buffered ammonium chloride (GIBCO) to lyse the erythrocytes. T-cells were washed twice with HBSS.
Purified T-cells were resuspended at 2×10^6 cells/ml in complete culture medium composed of RPMI-1640 (Whittaker Bioproducts, Walkerville, Md.) with 10% FBS (Sigma), 2 mM L-glutamine (GIBCO), 1% Penicillin-Streptomycin (GIBCO) and 15 mM HEPES (GIBCO). In 96-well plates (Becton Dickinson, Lincoln Park, N.J.), 0.1 ml aliquots of T-cell suspension were mixed with 0.05 ml of 40 μg/ml PPIA-M (Sigma). The compounds of this invention were dissolved in dimethylsulfoxide at 10 mM and various dilutions in complete medium were added in duplicate wells (0.05 ml/well). The plates were incubated at 37° C. in a humidified atmosphere of 5% carbon dioxide and 95% air for 72 hours.
Proliferation was assessed by measurement of [3H]-thymidine incorporation. During the last 6 hours of incubation, the cells were pulse labelled with 1 μCi/well of [3H]-thymidine (New England Nuclear, Boston, Mass.). The cells were harvested onto glass fiber paper using a plate harvester and the radioactivity incorporated into cellular DNA corresponding to individual wells was measured by standard liquid scintillation counting methods. The mean counts per minute (CPM) of replicate wells was calculated and linear regression analysis of mean CPM versus compound concentration was used to determine the concentration of compound which would inhibit [^3 H]-thymidine incorporation of T-cells by 50% (IC50).

Chain of FKBP (P62942 whole entry): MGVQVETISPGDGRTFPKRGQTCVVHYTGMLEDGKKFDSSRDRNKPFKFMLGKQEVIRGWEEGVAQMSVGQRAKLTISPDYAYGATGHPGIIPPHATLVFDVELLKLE

SMILES: CC(=O)Nc1nc(C)c(S(=O)(=O)N[C@@H](CC(C)C)CN2CCC[C@H]2C(=O)NCCCCc2ccccc2)s1 [Example 4, 1-[2-(S)-(2-Acetylamino-4-methyl-S-thiazolesulfonylamino)-4-methylpentyl]-L -proline 4-Phenylbutylamide]
IC50 [1]: > 5 µM | IC50 [2]: 2 µM

SMILES: CC(C)C[C@@H](CN1CCC[C@H]1C(=O)NCCCCc1ccccc1)NS(=O)(=O)c1cccs1 [Example 5, 1-[2-(S)-(Thiophene-2-sulfonylamino)-4-methylpentyl]-L-proline 4-Phenylbutylamide]
IC50 [1]: > 5 µM | IC50 [2]: 3 µM

SMILES: CC(C)C[C@@H](CN1CCC[C@H]1C(=O)NCCCCc1ccccc1)NS(=O)(=O)/C=C/c1ccccc1 [Example 6, 1-[2-(S)-(2-phenyl-ethenesulfonylamino)-4-methylpentyl]-L-proline 4-Phenylbutylamtde]
IC50 [1]: > 5 µM | IC50 [2]: 5 µM

SMILES: CC(C)C[C@@H](CN1CCC[C@H]1C(=O)NCCCCc1ccccc1)NS(=O)(=O)c1ccc(-c2ccon2)s1 [Example 8, 1-[2-(S)-(5 - [Isoxazol-25-yl]-thiophene-2-sulfonylamino)-4-methylpentyl]-L-proline 4-Phenylbutylamide]
IC50 [1]: > 5 µM | IC50 [2]: 1 µM

SMILES: CC(C)C[C@@H](CN1CCC[C@H]1C(=O)NCCCCc1ccccc1)NS(=O)(=O)c1c(C(C)C)cc(C(C)C)cc1C(C)C [Example 10, 1-[2-(S)-(2',4',6'-Triisopropylbenzenesulfonylamino)-4-methylpentyl]-L-proline 4-Phenylbutylamide]
IC50 [1]: > 5 µM | IC50 [2]: 4 µM

SMILES: CC[C@H](C)[C@H](NC(=O)[C@@H]1CCCCN1C[C@@H](NS(C)(=O)=O)[C@@H](C)CC)C(=O)NCc1ccccc1 [Example 11]
IC50 [1]: > 5 µM | IC50 [2]: > 15 µM

Second part, led by results:

IC50 [1]: > 5 µM
SMILES: CC(C)C[C@@H](CN1CCC[C@H]1C(=O)NCCCCc1ccccc1)NS(=O)(=O)CC12CCC(CC1=O)C2(C)C (single isomer, unassigned) [Example 7]
IC50 [2]: 2 µM

IC50 [1]: 3.5 µM
SMILES: CC(C)C[C@@H](CN1CCC[C@H]1C(=O)NCCCCc1ccccc1)NS(C)(=O)=O [Example 1, 1-[2-(S)-Methanesulfonylamino-4-methylpentyl]-L-proline 4-Phenylbutylamide]
inhibition of mitogen-induced T-cell proliferation (in words) [2]: inhibited mitogen induced T-cell proliferation | IC50 [2]: 2 µM

IC50 [1]: > 5 µM
SMILES: Cc1ccc(S(=O)(=O)N[C@@H](CC(C)C)CN2CCC[C@H]2C(=O)NCCCCc2ccccc2)cc1 [Example 2, 1-[2-(S)-(Toluene-4-sulfonylamino)-4-methylpentyl]-L-proline 4-Phenylbutylamide]
IC50 [2]: 8 µM

IC50 [1]: > 5 µM
SMILES: CC(C)C[C@@H](CN1CCC[C@H]1C(=O)NCCCCc1ccccc1)NS(=O)(=O)c1cccc2cccnc12 [Example 3, 1-[2-(S)-(Quinoline-8-sulfonylamino)-4-methylpentyl]-L-proline 4-Phenylbutylamide]
inhibition of mitogen-induced T-cell proliferation (in words) [2]: inhibited mitogen induced T-cell proliferation | IC50 [2]: 5 µM
